Results on 4 compounds are retold here after patent publication US8901308B2, “Triazole compounds that modulate Hsp90 activity” (Synta Pharmaceuticals Corp., priority 2004, dated 2014).

Data set [1] relates to c-kit in Kasumi-1 cells. As to the kind of experiment: Western blot analysis of c-Kit in Kasumi-1 cells. Format: cell-based. An excerpt: The results of the FACS analysis were confirmed with Western blot analysis (see FIG. 5). […] In contrast, 17-AAG had no effect of c-Kit protein levels.
Data set [2] concerns c-kit in Kasumi-1 cells. In words: FACS-based c-kit degradation assay in Kasumi-1 cells. The settings on record: about 18 h. The class given is cell-based. The procedure: (§1) Two leukemia cell lines, HEL92.1.7 and Kasumi-1, were used for testing c-kit degradation induced by Hsp90 inhibitors of the invention. […] The cells were collected and centrifuged (SORVALL RT 6000D) at 1200 rpm for 5 min. The supernatants were discarded, and the cells were washed one time with 1×PBS. After centrifugation the cells were stained with FITC conjugated c-kit antibody (MBL International, Cat# K0105-4) in […] 1×PBS at 4° C. for 1 h. The samples were read and analysized with FACSCalibur flow cytometer (Becton Dicknson).

In the next data set the test system is c-kit in HEL92.1.7 cells. In words: FACS-based c-kit degradation assay in HEL92.1.7 cells. Format: cell-based. The settings on record: about 18 h. The procedure: as §1
The subject of data set [3] is RERF-LC-AI^IVP human lung tumor cells. In words: RERF-LC-AI^IVP nude mouse xenograft model. The settings on record: for Growth rate of RERF-LC-AI^IVP tumors: 5 times per week, 15 doses. Format: in vivo. On the procedure:
The human squamous non-small cell lung cancer cell line, RERF-LC-AI (RCB0444; S. Kyoizumi, et al., Cancer. Res. 45:3274-3281, 1985), was obtained from the Riken Cell Bank (Tsukuba, Ibaraki, Japan). […] FBS was obtained from American Type Culture Collection (Manassas, Va., USA) and all other reagents were obtained from Invitrogen Corp. (Carlsbad, Calif., USA). Approximately 4−5×10(6) cells that had been cryopreserved in liquid nitrogen were rapidly thawed at 37° C. and transferred to a 175 cm^2 tissue culture flask containing 50 ml of growth media and then incubated at 37° C. in a 5% CO2 incubator.
The growth media was replaced every 2-3 days until the flask became 90% confluent, typically in 5-7 days. To passage and expand the cell line, a 90% confluent flask was washed with 10 ml of room temperature phosphate buffered saline (PBS) and the cells were disassociated by adding 5 ml 1× trypsin-EDTA (Invitrogen) and incubating at 37° C. until the cells detached from the surface of the flask. To inactivate the trypsin, 5 ml of growth media was added and then the contents of the flask were centrifuged to pellet the cells. The supernatant was aspirated and the cell pellet was resuspended in 10 ml of growth media and the cell number determined using a hemocytometer. Approximately 1-3×10(6) cells per flask were seeded into 175 cm^2 flasks containing 50 ml of growth media and incubated at 37° C. in a 5% CO2 incubator. When the flasks reached 90% confluence, the above passaging process was repeated until sufficient cells had been obtained for implantation into mice.
Seven to eight week old, female Crl:CD-1-nuBR (nude) mice were obtained from Charles River Laboratories (Wilmington, Mass., USA). Animals were housed 4-5/cage in micro-isolators, with a 12 hr/12 hr light/dark cycle, acclimated for at least 1 week prior to use and fed normal laboratory chow ad libitum. Studies were conducted on animals between 8 and 12 weeks of age at implantation. […] Using a 27 gauge needle and 1 cc syringe, 0.1 ml of the cell suspension was injected subcutaneously into the flank of each nude mouse. Tumor volumes (V) were calculated by caliper measurement of the width (W), length (L) and thickness (T) of tumors using the following formula: V=0.5236×(L×W×T).
In vivo passaged RERF-LC-AI tumor cells (RERF-LC-AI^IVP) were isolated to improve the rate of tumor implantation relative to the parental cell line in nude mice. RERF-LC-AI tumors were permitted to develop in vivo until they reached approximately 250 mm^3 in volume, which required approximately 3 weeks following implantation. Mice were euthanized via CO2 asphyxiation and their exteriors sterilized with 70% ethanol in a laminar flow hood. Using sterile technique, tumors were excised and diced in 50 ml PBS using a scalpel blade. […]

The subject of another data set is Hsp90 protein. In words: Malachite Green assay of ATPase activity of Hsp90. Format: biochemical. The settings on record: 37° C., 4 hours. On the procedure: Hsp90 protein was obtained from Stressgen (Cat#SPP-770). Assay buffer: 100 mM Tris-HCl, Ph7.4, 20 mM KCl, 6 mM MgCl2. […] Malachite green reagent was added to the reaction. […] The plate was read by an ELISA reader with an absorbance at 620 nm.

The subject of data set [4] is Her2, an Hsp90 client protein. As to the kind of experiment: Degradation of Her2 in BT-474 cells (Western blot). Format: cell-based, Human. The settings on record: overnight. The procedure: Human high-Her2 breast carcinoma BT474 (HTB-20), SK-BR-3 (HTB-30) and MCF-7 breast carcinoma (HTB-22) from American Type Culture Collection, VA, USA were grown in Dulbecco's modified Eagle's medium with 4 mM L-glutamine and antibiotics (100 IU/ml penicillin and 100 ug/ml streptomycine; GibcoBRL). To obtain exponential cell growth, cells were trypsinized, counted and seeded at a cell density of 0.5×10^6 cells/ml regularly, every 3 days. All experiments were performed on day 1 after cell passage.
After treatment, each cytoplasmic sample was prepared from 1×10^6 cells by incubation of cell lysis buffer (#9803, cell Signaling Technology) on ice for 10 minutes. The resulting supernatant used as the cytosol fractions were dissolved with sample buffer for SDS-PAGE and run on a SDS-PAGE gel, blotted onto a nitrocellulose membrane by using semi-dry transfer. Non-specific binding to nitrocellulose was blocked with 5% skim milk in TBS with 0.5% Tween at room temperature for 1 hour, then probed with anti-Her2/ErB2 mAb (rabbit IgG, #2242, Cell Signaling) and anti-Tubulin (T9026, Sigma) as housekeeping control protein. HRP-conjugated goat anti-rabbit IgG (H+L) and HRP-conjugated horse anti-mouse IgG (H+L) were used as secondary Ab (#7074, #7076, Cell Signaling) and LumiGLO reagent, 20× Peroxide (#7003, Cell Signaling) was used for visualization.
A general note: A western blot detects proteins with antibodies after separation by electrophoresis.

“Also recorded” adds a separate entry of the source.

Consider `C=CCNC1=C2C[C@@H](C)C[C@H](OC)[C@H](O)[C@@H](C)/C=C(\C)[C@H](OC(N)=O)[C@@H](OC)/C=C\C=C(/C)C(=O)NC(=CC1=O)C2=O` [Compound 17-AAG, 17-allylamino-17-demethoxygeldanamycin, reference compound], for which the “c-Kit protein levels (Western blot)” value in the data set with c-kit in Kasumi-1 cells [1] (concentration not given) is listed as “had no effect”. Moreover, the c-kit degradation entry in the data set on c-kit in Kasumi-1 cells [2] (0.5 μM) and in the data set on c-kit in HEL92.1.7 cells (0.5 μM) was “could not induce c-kit degradation” throughout. The “Growth rate of RERF-LC-AI^IVP tumors” value in data set [3] (75 mg/kg body weight i.p.) is reported as “inhibited tumor growth; also recorded: decreased the growth rate”. For the same compound, in data set [3] (i.p., dosed at approximately the maximum tolerated dose), the “Maximum tolerated dose in nude mice” value is given as around 75 mg/kg body weight.
On to `Oc1ccc(-c2nnc(S)n2-c2cccc3ccccc23)c(O)c1` [Compound 108, 3-(2,4-Dihydroxy-phenyl)-4-(naphthalen-1-yl)-5-mercapto-[1,2,4] triazole], for which the results for the “ATPase activity of Hsp90” value with Hsp90 protein (4 μM) and with Hsp90 protein (40 μM) were “significant inhibition” and “even greater inhibition”, respectively. For the same compound, the “Degradation of Her2” value in data set [4] (0.5 μM) was “partially degradated”; in data set [4] (2 μM) it was “partially degradated”; in data set [4] (5 μM), “almost completely degraded”.
For the compound `CCc1cc(-c2nnc(S)n2-c2ccc(OC)c3c2ccn3C(C)C)c(O)cc1O` [Compound 188, 3-(2,4-Dihydroxy-5-ethyl-phenyl)-4-(1-isopropyl-7-methoxy-indol-4-yl)-5-mercapto-[1,2,4] triazole], the c-kit degradation result in the data set with c-kit in Kasumi-1 cells [2] (0.05 μM), with c-kit in Kasumi-1 cells [2] (0.5 μM), in the data set on c-kit in HEL92.1.7 cells (0.05 μM) and in the data set with c-kit in HEL92.1.7 cells (0.5 μM) was “induced c-kit degradation” throughout. Also, the “Growth rate of RERF-LC-AI^IVP tumors” value in data set [3] (200 mg/kg body weight i.p.) is “inhibited tumor growth; also recorded: decreased the growth rate”. In addition, the “Maximum tolerated dose in nude mice” value in data set [3] (mouse, in vivo, ip) is given as around 200 mg/kg body weight.
For `CC(C)c1cc(-c2nnc(S)n2-c2ccc3c(ccn3C)c2)c(O)cc1O` [Compound 221, 3-(2,4-dihydroxy-5-isopropyl-phenyl)-4-(N-methyl-indol-5-yl)-5-mercapto-[1,2,4] triazole], the “c-Kit protein levels (Western blot)” value in the data set on c-kit in Kasumi-1 cells [1] (100 nM) and with c-kit in Kasumi-1 cells [1] (400 nM) was “induced the degradation of c-Kit” in each case. In addition, the c-kit degradation entry in the data set with c-kit in Kasumi-1 cells [2] (0.05 μM), in the data set with c-kit in Kasumi-1 cells [2] (0.5 μM), in the data set on c-kit in HEL92.1.7 cells (0.05 μM) and in the data set on c-kit in HEL92.1.7 cells (0.5 μM) was “induced c-kit degradation” throughout.
